A short description of test [1]: Inhibition of alpha-chymotrypsin in bovine pancreas. On the set-up: species or system Bos taurus.
Test [2] concerns the target Cathepsin B (Bos taurus) (UniProt P07688). Put plainly: Inhibition of cathepsin B in bovine spleen at 15 uM.
The species named for test [3] is Sus scrofa. Briefly: Inhibition of trypsin in pig pancreas at 15 uM.

SMILES strings stand for the structures. pIC50: −log10 of the molar value. Activity calls are given as the source filed them. No cut-off for these calls is given here.

By pIC50 is commonly meant −log10 of the IC50, conventionally taken in molar units. In turn, `CCCCCC(=O)N[C@@H](CC(=O)O)C(=O)N[C@@H]1C(=O)N[C@@H](Cc2ccc(O)cc2)C(=O)N[C@H]2CC[C@@H](O)N(C2=O)[C@@H](CC(C)C)C(=O)N(C)[C@@H](Cc2ccccc2)C(=O)N[C@@H](C(C)C)C(=O)O[C@@H]1C` [CYANOPEPTOLIN 963A] gave a pIC50 in test [1] of 6.05. Also, the result in test [2] and in test [3] was inactive.

Regarding `CC[C@H](C)[C@@H]1NC(=O)[C@H](Cc2ccc(O)cc2)N(C)C(=O)[C@H](Cc2ccccc2)N2C(=O)[C@H](CC[C@H]2O)NC(=O)[C@H](Cc2ccccc2)NC(=O)[C@@H](NC(=O)[C@@H](O)COP(=O)(O)O)[C@@H](C)OC1=O` [MICROPEPTIN T 20], in test [1], the pIC50 was 8.60.

These data come from ChEMBL document CHEMBL1148932, “Cyanopeptolin 963A, a chymotrypsin inhibitor of Microcystis PCC 7806” (J Nat Prod, 2004).
